pIC50: −log10 of the molar value.
Key:
MV4-11 [1] = test: Cytotoxicity against human MV4-11 cells assessed as cell growth inhibition incubated for 72 hrs by Cell Titer-Glo assay; type: functional, cell-based; settings: MV4-11, 72 h
[2] = Cytotoxicity against human L02 cells assessed as cell growth inhibition incubated for 72 hrs by Cell Titer-Glo assay
[3] = Selectivity index, ratio of IC50 for human L02 cells to IC50 for human MV4-11 cells; settings: L02 cells and MV4-11 cells
MV4-11 [4] = test: Induction of apoptosis in human MV4-11 cells assessed as viable cells at 0.1 uM incubated for 24 hrs by Annexin V-FITC/PI staining based flow cytometry (reference value: 98.58 to 99.04%); type: functional; settings: read-out: Activity
MV4-11 [5] = test: Induction of cell cycle arrest in human MV4-11 cells assessed as accumulation of cells at G0/G1 phase at 0.1 uM incubated for 24 hrs by PI staining based flow cytometry (reference value: 57.44 %); type: functional
MV4-11 [6] = test: Induction of apoptosis in human MV4-11 cells assessed as necrotic cells at 0.1 uM incubated for 24 hrs by Annexin V-FITC/PI staining based flow cytometry (reference value: 0.05 to 0.24 %); type: functional
MV4-11 [7] = test: Induction of cell cycle arrest in human MV4-11 cells assessed as accumulation of cells at G2/M phase at 0.1 uM incubated for 24 hrs by PI staining based flow cytometry (reference value: 18.56 %); type: functional
MV4-11 [8] = test: Induction of apoptosis in human MV4-11 cells assessed as early apoptotic cells at 0.1 uM incubated for 24 hrs by Annexin V-FITC/PI staining based flow cytometry (reference value: 0.015 to 0.39 %); type: functional
MV4-11 [9] = test: Downregulation of FLT-3 protein expression in human MV4-11 cells incubated for 24 hrs by Western blot analysis; type: functional, cell-based; settings: dose 100-400 nM
MV4-11 [10] = test: Induction of cell cycle arrest in human MV4-11 cells assessed as accumulation of cells at S phase at 0.1 uM incubated for 24 hrs by PI staining based flow cytometry (reference value: 27.58 %); type: functional
MV4-11 [11] = test: Induction of apoptosis in human MV4-11 cells assessed as late apoptotic cells at 0.1 uM incubated for 24 hrs by Annexin V-FITC/PI staining based flow cytometry (reference value: 0.53 to 1.03 %); type: functional

SMILES	pIC50 (MV4-11 [1])	IC50 at 72 h [2]	selectivity ratio [3]	viability at 0.1 µM (MV4-11 [4])	Activity (MV4-11 [5])	Activity (MV4-11 [6])	Activity (MV4-11 [7])	Activity (MV4-11 [8])	Activity (MV4-11 [9])	Activity (MV4-11 [10])	Activity (MV4-11 [11])
COc1ccc2[nH]cc(-c3c(OC)c(OC)c(-c4c[nH]c5ccc(O)cc45)c(OC)c3OC)c2c1	5.89	> 100 µM	> 75								
COc1c(OC)c(-c2c[nH]c3ccc(OCC(=O)c4ccccc4)cc23)c(OC)c(OC)c1-c1c[nH]c2ccccc12	5.89	> 100 µM	> 74								
COc1c(OC)c(-c2c[nH]c3ccc(OCCN4CCOCC4)cc23)c(OC)c(OC)c1-c1c[nH]c2ccccc12	6.35	> 100 µM	> 220								
COc1c(O)c(-c2c[nH]c3ccccc23)c(CC=C(C)C)c(OC)c1-c1c[nH]c2ccccc12	5.74	17 µM	9								
COc1c(OC)c(-c2c[nH]c3ccc(OCC(=O)c4ccc(Cl)c(Cl)c4)cc23)c(OC)c(OC)c1-c1c[nH]c2ccccc12	6.00	> 100 µM	> 100								
CCOc1ccc2[nH]cc(-c3c(OC)c(OC)c(-c4c[nH]c5ccccc45)c(OC)c3OC)c2c1	6.70	> 100 µM	> 500								
COc1c(OC)c(-c2c[nH]c3ccc(O)cc23)c(OC)c(OC)c1-c1c[nH]c2ccccc12	4.92	> 100 µM	> 8								
COc1c(OC)c(-c2c[nH]c3ccc(OC4CCCC4)cc23)c(OC)c(OC)c1-c1c[nH]c2ccccc12	6.85	> 100 µM	> 710	74.7%	49.99%	0%	15.55%	19.09%	Dose-Dependent Effect	36.06%	4.36%
COc1c(OC)c(-c2cn(C3CCCC3)c3ccccc23)c(OC)c(OC)c1-c1c[nH]c2ccccc12	6.08	> 100 µM	> 120								
COc1ccc2[nH]cc(-c3c(OC)c(OC)c(-c4c[nH]c5ccccc45)c(OC)c3OC)c2c1	5.19	> 100 µM	> 15								
COc1c(O)c(-c2c[nH]c3ccccc23)c2c(c1-c1c[nH]c3ccccc13)OC(C)(C)C=C2	5.92	11 µM	9								
COc1c(OC)c(-c2cn(CCN3CCOCC3)c3ccccc23)c(OC)c(OC)c1-c1c[nH]c2ccccc12	6.32	> 100 µM	> 210								
COc1c(OC)c(-c2c[nH]c3ccccc23)c(OC)c(OC)c1-c1c[nH]c2ccccc12	5.23	> 100 µM	> 17								
COc1c(OC)c(-c2c[nH]c3ccc(OCCO[C@@H]4O[C@H](CO)[C@@H](O)[C@H](O)[C@H]4O)cc23)c(OC)c(OC)c1-c1c[nH]c2ccccc12	6.59	> 100 µM	> 380	78%	52.91%	0%	17.42%	15.78%	Dose-Dependent Effect	30.68%	3.67%
